{"source": "ChEMBL document CHEMBL1201862", "about": "“PubChem BioAssay data set” (2004)", "assay_in_all_cases": "growth of human tumour cells (NCI), 48 h", "key": {"[1]": {"test_system": "MDA-MB-231"}, "[2]": {"test_system": "M14"}, "[3]": {"test_system": "MDA-MB-435"}, "[4]": {"test_system": "SK-MEL-2"}, "[5]": {"test_system": "OVCAR-5"}, "[6]": {"test_system": "EKVX"}, "[7]": {"test_system": "SNB-75"}, "[8]": {"test_system": "RPMI-8226"}, "[9]": {"test_system": "COLO 205"}, "[10]": {"test_system": "OVCAR-4"}, "[11]": {"test_system": "MDA-N"}, "[12]": {"test_system": "SK-MEL-28"}, "[13]": {"test_system": "PC-3"}, "[14]": {"test_system": "OVCAR-3"}, "[15]": {"test_system": "OVCAR-8"}, "[16]": {"test_system": "U-251"}, "[17]": {"test_system": "HL-60"}, "[18]": {"test_system": "SF-539"}, "[19]": {"test_system": "HOP-92"}, "[20]": {"test_system": "786-0"}, "[21]": {"test_system": "DU-145"}, "[22]": {"test_system": "A549"}, "[23]": {"test_system": "Malme-3M"}, "[24]": {"test_system": "UO-31"}, "[25]": {"test_system": "NCI-H460"}, "[26]": {"test_system": "KM12"}, "[27]": {"test_system": "CAKI-1"}, "[28]": {"test_system": "LOX IMVI"}, "[29]": {"test_system": "CCRF-CEM"}, "[30]": {"test_system": "NCI-H522"}, "[31]": {"test_system": "SNB-19"}, "[32]": {"test_system": "SF-295"}, "[33]": {"test_system": "SR"}, "[34]": {"test_system": "T47D"}, "[35]": {"test_system": "NCI-H23"}, "[36]": {"test_system": "BT-549"}, "[37]": {"test_system": "UACC-257"}, "[38]": {"test_system": "SW-620"}, "[39]": {"test_system": "SK-OV-3"}, "[40]": {"test_system": "RXF 393"}, "[41]": {"test_system": "ACHN"}, "[42]": {"test_system": "A498"}, "[43]": {"test_system": "MOLT-4"}, "[44]": {"test_system": "UACC-62"}, "[45]": {"test_system": "SK-MEL-5"}, "[46]": {"test_system": "SN12C"}, "[47]": {"test_system": "HT-29"}, "[48]": {"test_system": "HCT-15"}, "[49]": {"test_system": "NCI/ADR-RES"}, "[50]": {"test_system": "HCC 2998"}, "[51]": {"test_system": "TK-10"}, "[52]": {"test_system": "HOP-62"}, "[53]": {"test_system": "NCI-H226"}, "[54]": {"test_system": "HCT-116"}, "[55]": {"test_system": "IGROV-1"}, "[56]": {"test_system": "SF-268"}, "[57]": {"test_system": "MCF7"}}, "note": "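Where inhibition never reached the appropriate level, the endpoint shown equals the highest concentration tested. Otherwise, values were interpolated linearly from a five-concentration, 48-hour dose response in 96-well plates. Here, GI50 denotes the concentration required for 50% inhibition of growth.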 Activity calls are given as the source filed them. Cut-off read from the data, not from the text of the source: active = GI50 up to about 1.1 µM and inactive = higher."}
{"smiles": "CCOC(=O)c1c(C)n(Cc2ccc(Cl)cc2Cl)c2c1cc(O)c1[nH]c3c(c12)CCCC3", "values": [{"measurement": "GI50", "setting": "[1]", "result": "34.2 µM (inactive)"}, {"measurement": "GI50", "setting": "[2]", "result": "26.7 µM (inactive)"}, {"measurement": "GI50", "setting": "[3]", "result": "20.3 µM (inactive)"}, {"measurement": "GI50", "setting": "[4]", "result": "24 µM (inactive)"}, {"measurement": "GI50", "setting": "[5]", "result": "36.2 µM (inactive)"}, {"measurement": "GI50", "setting": "[6]", "result": "34.6 µM (inactive)"}, {"measurement": "GI50", "setting": "[7]", "result": "23.3 µM (inactive)"}, {"measurement": "GI50", "setting": "[8]", "result": "16.6 µM (inactive)"}, {"measurement": "GI50", "setting": "[9]", "result": "37.1 µM (inactive)"}, {"measurement": "GI50", "setting": "[10]", "result": "17.1 µM (inactive)"}, {"measurement": "GI50", "setting": "[11]", "result": "21.2 µM (inactive)"}, {"measurement": "GI50", "setting": "[12]", "result": "22.1 µM (inactive)"}, {"measurement": "GI50", "setting": "[13]", "result": "19.9 µM (inactive)"}, {"measurement": "GI50", "setting": "[14]", "result": "38 µM (inactive)"}, {"measurement": "GI50", "setting": "[15]", "result": "11.4 µM (inactive)"}, {"measurement": "GI50", "setting": "[16]", "result": "37.8 µM (inactive)"}, {"measurement": "GI50", "setting": "[17]", "result": "< 0.01 µM (active)"}, {"measurement": "GI50", "setting": "[18]", "result": "24.1 µM (inactive)"}, {"measurement": "GI50", "setting": "[19]", "result": "20.2 µM (inactive)"}, {"measurement": "GI50", "setting": "[20]", "result": "30.1 µM (inactive)"}, {"measurement": "GI50", "setting": "[21]", "result": "36.4 µM (inactive)"}, {"measurement": "GI50", "setting": "[22]", "result": "52 µM (inactive)"}, {"measurement": "GI50", "setting": "[23]", "result": "20.6 µM (inactive)"}, {"measurement": "GI50", "setting": "[24]", "result": "20.7 µM (inactive)"}, {"measurement": "GI50", "setting": "[25]", "result": "28.3 µM (inactive)"}, {"measurement": "GI50", "setting": "[26]", "result": "22.6 µM (inactive)"}, {"measurement": "GI50", "setting": "[27]", "result": "22.8 µM (inactive)"}, {"measurement": "GI50", "setting": "[28]", "result": "33.5 µM (inactive)"}, {"measurement": "GI50", "setting": "[29]", "result": "16.8 µM (inactive)"}, {"measurement": "GI50", "setting": "[30]", "result": "16.1 µM (inactive)"}, {"measurement": "GI50", "setting": "[31]", "result": "23.6 µM (inactive)"}, {"measurement": "GI50", "setting": "[32]", "result": "29.3 µM (inactive)"}, {"measurement": "GI50", "setting": "[33]", "result": "0.136 µM (active)"}, {"measurement": "GI50", "setting": "[34]", "result": "14.7 µM (inactive)"}, {"measurement": "GI50", "setting": "[35]", "result": "27.5 µM (inactive)"}, {"measurement": "GI50", "setting": "[36]", "result": "18.9 µM (inactive)"}, {"measurement": "GI50", "setting": "[37]", "result": "19.3 µM (inactive)"}, {"measurement": "GI50", "setting": "[38]", "result": "30.7 µM (inactive)"}, {"measurement": "GI50", "setting": "[39]", "result": "41.2 µM (inactive)"}, {"measurement": "GI50", "setting": "[40]", "result": "18.5 µM (inactive)"}, {"measurement": "GI50", "setting": "[41]", "result": "25.6 µM (inactive)"}, {"measurement": "GI50", "setting": "[42]", "result": "19.5 µM (inactive)"}, {"measurement": "GI50", "setting": "[43]", "result": "< 0.01 µM (active)"}, {"measurement": "GI50", "setting": "[44]", "result": "22.5 µM (inactive)"}, {"measurement": "GI50", "setting": "[45]", "result": "20.5 µM (inactive)"}, {"measurement": "GI50", "setting": "[46]", "result": "22.9 µM (inactive)"}, {"measurement": "GI50", "setting": "[47]", "result": "24 µM (inactive)"}, {"measurement": "GI50", "setting": "[48]", "result": 41.7, "unit": "µM"}, {"measurement": "GI50", "setting": "[49]", "result": "18.8 µM (inactive)"}, {"measurement": "GI50", "setting": "[50]", "result": "27.3 µM (inactive)"}, {"measurement": "GI50", "setting": "[51]", "result": "24.5 µM (inactive)"}, {"measurement": "GI50", "setting": "[52]", "result": "27.5 µM (inactive)"}, {"measurement": "GI50", "setting": "[53]", "result": "23.6 µM (inactive)"}, {"measurement": "GI50", "setting": "[54]", "result": "40.7 µM (inactive)"}, {"measurement": "GI50", "setting": "[55]", "result": "24.9 µM (inactive)"}, {"measurement": "GI50", "setting": "[56]", "result": "20.8 µM (inactive)"}, {"measurement": "GI50", "setting": "[57]", "result": "14.6 µM (inactive)"}]}
